Test results from patent US10647680B2, “Urea compound, preparation method therefor and medical use thereof” (Ancureall Pharmaceutical (Shanghai) Co., Ltd., priority 2016, dated 2020).

How the values were obtained:
[1] = system: Kasumi-1 (c-Kit N822K mutant type); assay: In vitro growth inhibition (GI50), Kasumi-1; type: cell-based; details: Homo sapiens, Cell lines of leukemia, read-out: GI 50 Kasumi-1 Kit (N822K)
Excerpt: (§1) 1. Cell Lines and Cell Cultures
(§2) Tumor cell line is an effective cell model for studying the inhibition of tumor cell growth or proliferation in vitro. In the present invention, a representative tumor cell line was selected to determine the cell growth inhibition activity of the present compound. All cell lines used were from ATCC, DSMZ, and the Cell Bank of the Chinese Academy of Sciences. Cell culture conditions and methods were in accordance with the requirements of each cell line. Cells were subcultured in vitro for no more than 3 passages each time, and as required, single-clone purification and identification of cell lines could be carried out.
(§3) The cell culture media used were RPMI1640 (Gibco), MEM (Gibco), McCOY'S5A (Gibco), and IMDM (Gibco). The complete medium was prepared by supplement with 5˜20% fetal calf serum (Gibco), 1% double-antibiotics (10000 units/mL penicillin and 10000 units/mL), 2 mM glutamine or 1 mM sodium pyruvate, respectively.
(§4) The human acute […] monomonocyte leukemia cell line MV4-11 (FLT3 ITD+/+ mutant type, ATCC) was cultured in a complete medium comprising 1×IMDM and 10% FBS. Human acute myeloid leukemia cell line MOLM-13 (FLT3 ITD+/− mutant type, DSMZ), human acute lymphoblastic leukemia cell line RS4; 11 (FLT3 wild type, ATCC), human chronic granulocytic leukemia cell line K562 (FLT3 negative expression, positive expression of BCR-ABL fusion protein, ATCC), human promyelocytic leukemia cell line HL-60 (FLT3 wild type, ATCC), human B lymphoblastic leukemia cell line RAMOS (positive expression of Brutons tyrosine protein kinase, ATCC), human acute myeloid leukemia cell line Kasumi-1 (c-Kit N822K mutant type, ATCC), human acute monocytic leukemia cell line U937 (FLT3 wild-type, ATCC), human acute myeloid leukemia cell line OCI-AML3 (NPMc+ mutant type, ATCC), human acute myeloid leukemia cell line KG-1 (expressing FGFR1OP2-FGFR1 fusion protein, ATCC) were cultured in a complete medium comprising 1×RPMI1640 and 10% FBS, respectively.
(§5) Adherent cells were digested with 0.25% pancreatin-EDTA (Gibco). The suspension cells were collected by centrifugation. The supernatant was discarded and the cell pellet was resuspended and counted. Different cell concentrations (5˜10×10^4 cells/mL) were prepared according to the growth cycle of each cell line and then seeded on a 96-well plate (Corning), 100 μL/well. The cells were incubated overnight at 37° C., 5% CO2. The compounds were added to the cells on the second day with 2 wells in parallel. The final concentration of organic solvent shall not exceed 1%. The cells were continually incubated for 3 to 5 days, and then subjected to MTT assay.
(§6) The compound of the present invention and the control compound were dissolved in DMSO (Sigma) respectively, with the purity of more than 98%. The compound was stored in a concentration of 10 mM at −20° C. and diluted to 2- or 10-fold series prior to use.
(§7) Dojindo CCK8 reagent kit was used as MTT assay. THERMO […] FC meter was used as microplate reader.
(§8) For adherent cells, culture medium was removed and immediately replaced with the fresh prepared medium which contains 10% CCK8 reagent (100 μL/well). For the suspension cells, CCK8 was directly added to 10% of the final concentration. The cells were continually incubated for 1˜4 h. When a dark yellow color could be observed in the solvent control wells, the absorbance value at OD450 nm was measured and the cell growth rate was calculated according to the following formula: Cell Growth Rate (%)=100*(T−T0)/(C−T0) T=optical density of drug treatment cell well—optical density of blank control well; T0=optical density of cell well before drug treatment—optical density of blank control well; C=optical density of cell well of solvent control group—optical density of blank control well. The concentration value of 50% inhibition of cell growth (GI50) was calculated according to the drug concentration and cell growth rate curve. […]

HL-60 (FLT3 wild type) = assay: In vitro growth inhibition (GI50), HL-60; type: cell-based; details: Homo sapiens, Cell lines of leukemia, read-out: GI 50 HL60 FLT3 (WT)
Excerpt: as §1, §2, §3, §4, §5, §6, §7, §8

[2] = system: KG-1 (expressing FGFR1OP2-FGFR1 fusion protein); assay: In vitro growth inhibition (GI50), KG-1; type: cell-based; details: Homo sapiens; Cell lines of leukemia; read-out: GI 50 KG-1 FGFR1OP 2-FGFR1
Excerpt: as §1, §2, §3, §4
as §5, with “The” for “Adherent cells were digested with 0.25% pancreatin-EDTA (Gibco). The”
(§9) The compound was stored in a concentration of 10 mM at −20° C. and diluted to 2- or 10-fold series prior to use.
(§10) Dojindo CCK8 reagent kit was used as MTT assay. […] FC meter was used as microplate reader.
(§11) For adherent cells, culture medium was removed and immediately replaced with the fresh prepared medium which contains 10% CCK8 reagent (100 μL/well). For the suspension cells, CCK8 was directly added to 10% of the final concentration. The cells were continually incubated for 1˜4 h. […] The experiment was independently repeated 1˜3 times, and subject to biological statistical analysis. 4. Experimental Results
(§12) The initial concentration of the compound was 5,000 nM, then it was serially diluted by 2-fold or 10-fold to 0.01 nM. The GI50 value of each test compound was calculated according to the GI50 assay and calculation method. The experiments were repeated 1 to 3 times, and data were subjected to biological statistical analysis.

[3] = system: MOLM-13 (FLT3 ITD+/− mutant type); assay: In vitro growth inhibition (GI50), MOLM-13; type: cell-based, human; details: Homo sapiens, MOLM-13; Cell lines of leukemia; read-out: GI 50 MOLM-13 FLT3 (ITD+/−)
Excerpt: as §1, §2, §3, §4
as §5, with “The” for “Adherent cells were digested with 0.25% pancreatin-EDTA (Gibco). The”
as §9, §10, §11, §12

RS4; 11 (FLT3 wild type) = assay: In vitro growth inhibition (GI50), RS4; 11; type: cell-based, human; details: Homo sapiens, RS4-11; Cell lines of leukemia; read-out: GI 50 RS4: 11 FLT3 (WT)
Excerpt: as §1, §2, §3, §4
as §5, with “The” for “Adherent cells were digested with 0.25% pancreatin-EDTA (Gibco). The”
as §9, §10, §11, §12

[4] = system: K562 (FLT3 negative expression, positive expression of BCR-ABL fusion protein); assay: In vitro growth inhibition (GI50), K562; type: cell-based; details: Homo sapiens, Cell lines of leukemia, read-out: GI 50 K562 BCR-ABL
Excerpt: as §1, §2, §3, §4
as §5, with “The” for “Adherent cells were digested with 0.25% pancreatin-EDTA (Gibco). The”
as §9, §10, §11, §12

[5] = system: MV4-11 (FLT3 ITD+/+ mutant type); assay: In vitro growth inhibition (GI50), MV4-11; type: cell-based, human; details: Homo sapiens, MV4-11; Cell lines of leukemia; read-out: GI 50 MV4-11 FLT3 (ITD +/+)
Excerpt: as §1, §2, §3, §4
as §5, with “The” for “Adherent cells were digested with 0.25% pancreatin-EDTA (Gibco). The”
as §9, §10, §11, §12

[6] = system: OCI-AML3 (NPMc+ mutant type); assay: In vitro growth inhibition (GI50), OCI-AML3; type: cell-based; details: Homo sapiens, OCI-AML-3; Cell lines of leukemia; read-out: GI 50 OCI- AML3 NPMc+
Excerpt: as §1, §2, §3, §4
as §5, with “The” for “Adherent cells were digested with 0.25% pancreatin-EDTA (Gibco). The”
as §9, §10, §11, §12

[7] = system: RAMOS (positive expression of Brutons tyrosine protein kinase); assay: In vitro growth inhibition (GI50), RAMOS; type: cell-based; details: Homo sapiens, Cell lines of leukemia, read-out: GI 50 Ramos BTK
Excerpt: as §1, §2, §3, §4
as §5, with “The” for “Adherent cells were digested with 0.25% pancreatin-EDTA (Gibco). The”
as §9, §10, §11, §12

U937 (FLT3 wild-type) = assay: In vitro growth inhibition (GI50), U937; type: cell-based; details: Homo sapiens, U-937; Cell lines of leukemia; read-out: GI 50 U937 FLT 3(WT)
Excerpt: as §1, §2, §3, §4
as §5, with “The” for “Adherent cells were digested with 0.25% pancreatin-EDTA (Gibco). The”
as §9, §10, §11, §12

| Compound | GI50 [1] [µM] | GI50 (HL-60 (FLT3 wild type)) [µM] | GI50 [2] [µM] | GI50 [3] [µM] | GI50 (RS4; 11 (FLT3 wild type)) [µM] | GI50 [4] [µM] | GI50 [5] [µM] | GI50 [6] [µM] | GI50 [7] [µM] | GI50 (U937 (FLT3 wild-type)) [µM] |
| --- | --- | --- | --- | --- | --- | --- | --- | --- | --- | --- |
| CCOC(=O)c1ccc(-n2nc(C(C)(C)C)cc2NC(=O)Nc2ccc(-n3cnc4ccccc43)cc2)cc1 [Compound 111, ethyl 4-{5-[3-(4-benzimidazol-1-yl-phenyl)-carbamido]-3-tert-butyl-pyrazol-1-yl}-benzoate] | > 1 | > 1 | > 1 | 0.001 to 0.01 | 0.1 to 1 | 0.1 to 1 | 0.001 to 0.01 | > 1 | > 1 | > 1 |
| Cc1ccc2c(c1)ncn2-c1ccc(NC(=O)Nc2cc(C(C)(C)C)on2)cc1 [Compound 24, 1-(5-tert-butyl-isoxazol-3-yl)-3-[4-(5-methyl-benzimidazol-1-yl)-phenyl]-urea] | > 1 | > 1 | > 1 | 0.001 to 0.01 | 0.1 to 1 | 0.1 to 1 | 0.001 to 0.01 | > 1 | > 1 | > 1 |
| O=C(Nc1ccc(-n2cnc3ccccc32)cc1)Nc1nncs1 [Compound 62, 1-(4-benzimidazol-1-yl-phenyl)-3-[1,3,4]thiadiazol-2-yl-urea] | > 1 | > 1 | > 1 | > 1 | > 1 | > 1 | > 1 | > 1 | > 1 | > 1 |
| CC(C)(C)c1cc(NC(=O)Nc2ccc(-n3cnc4ccccc43)cc2)on1 [Compound 133, 1-(4-benzimidazol-1-yl-phenyl)-3-(3-tert-butyl-isoxazol-5-yl)-urea] | > 1 | > 1 | > 1 | 0.001 to 0.01 | > 1 | > 1 | 0.001 to 0.01 | > 1 | > 1 | > 1 |
| CC(C)(C)c1cc(NC(=O)Nc2ccc(-n3cnc4cc(Br)cnc43)cc2)no1 [Compound 51, 1-[4-(6-bromo-imidazo[4,5-b]pyridin-3-yl)-phenyl]-3-(5-tert-butyl-isoxazol-3-yl)-urea] | > 1 | > 1 | > 1 | 0.001 to 0.01 | > 1 | > 1 | 0.001 to 0.01 | > 1 | > 1 | > 1 |
| CC(C)Oc1ccc2c(c1)ncn2-c1ccc(NC(=O)Nc2cc(C(C)(C)C)on2)cc1 [Compound 8, 1-(5-tert-butyl-isoxazol-3-yl)-3-[4-(5-isopropoxy-benzimidazol-1-yl)-phenyl]-urea] | > 1 | > 1 | > 1 | 0.0001 to 0.001 | > 1 | > 1 | 0.0001 to 0.001 | > 1 | > 1 | > 1 |
| CC(C)(C)c1cc(NC(=O)Nc2ccc(-n3cnc4cc(OC(=O)N5CCOCC5)ccc43)cc2)no1 [Compound 15, 1-{4-[3-(5-tert-butyl-isoxazol-3-yl)-carbamido]-phenyl}-1H-benzimidazol-5-yl morpholin-4-carboxylate] | > 1 | > 1 | > 1 | 0.0001 to 0.001 | > 1 | > 1 | 0.0001 to 0.001 | > 1 | > 1 | > 1 |
| Cc1ccc(-n2nc(C(C)(C)C)cc2NC(=O)Nc2ccc(-n3cnc4ccccc43)cc2)cc1 [Compound 105, 1-(4-benzimidazol-1-yl-phenyl)-3-(5-tert-butyl-2-p-tolyl-2H-pyrazol-3-yl)-urea] | > 1 | > 1 | > 1 | 0.01 to 0.1 | > 1 | > 1 | 0.01 to 0.1 | > 1 | > 1 | > 1 |
| CCC(C)Oc1ccc2c(c1)ncn2-c1ccc(NC(=O)Nc2cc(C(C)(C)C)n[nH]2)cc1 (stereo not shown) [Compound 75, 1-[4-(5-sec-butoxy-benzimidazol-1-yl)-phenyl]-3-(5-tert-butyl-2H-pyrazol-3-yl)-urea] | > 1 | > 1 | > 1 | 0.0001 to 0.001 | > 1 | > 1 | 0.0001 to 0.001 | > 1 | > 1 | > 1 |
| CC(C)(C)c1cc(NC(=O)Nc2ccc(-n3cnc4cc(OCc5cccc(F)c5)ccc43)cc2)[nH]n1 [Compound 93, 1-(5-tert-butyl-2H-pyrazol-3-yl)-3-{4-[5-(3-fluoro-benzyloxy)-benzimidazol-1-yl]-phenyl]-urea] | > 1 | > 1 | > 1 | 0.001 to 0.01 | > 1 | > 1 | 0.001 to 0.01 | > 1 | > 1 | > 1 |
